Laboratory results as given in ChEMBL document CHEMBL5608175, “Lipid-conjugated nucleoside monophosphate and monophosphonate prodrugs: A versatile drug delivery paradigm” (Eur J Med Chem, 2024).

Experiments:
[1] = Metabolic stability in human liver microsomes assessed as half life; format: ADME, Microsome; conditions: for half-life: liver microsomes
[2] = target: Human immunodeficiency virus type 1 reverse transcriptase (Human immunodeficiency virus 1, UniProt Q72547); assay: Inhibition of HIV-1 reverse transcriptase
[3] = Cytotoxicity against African green monkey Vero E6 cells; format: toxicity, cell-based, Vero C1008; conditions: chlorocebus sabaeus
[4] = test system: SARS-CoV-2; assay: Antiviral activity against SARS-CoV-2 2019-nCoV/USA_WA1/2020 infected in African green monkey Vero E6 cells assessed as reduction in viral replication pre-treated with compound for 30 mins followed by viral infection and measured after 48 hrs; format: functional, organism-based; conditions: Severe acute respiratory syndrome coronavirus 2, 2019-nCoV/USA_WA1/2020, Vero C1008
[5] = test system: SARS-CoV-2; assay: Antiviral activity against SARS-CoV-2 2019-nCoV/USA_WA1/2020 infected in human PSC-derived lung epithelial cell assessed as reduction in viral replication pre-treated with compound for 30 mins followed by viral infection and measured after 48 hrs; format: functional, organism-based; conditions: Severe acute respiratory syndrome coronavirus 2, 2019-nCoV/USA_WA1/2020, Epithelial cell
[6] = test system: SARS-CoV-2; assay: Antiviral activity against SARS-CoV-2 2019-nCoV/USA_WA1/2020 infected in human Calu-3 cells assessed as reduction in viral replication pre-treated with compound for 30 mins followed by viral infection and measured after 48 hrs; format: functional, organism-based; conditions: Severe acute respiratory syndrome coronavirus 2, 2019-nCoV/USA_WA1/2020, Calu-3
[7] = test system: SARS-CoV-2; assay: Antiviral activity against SARS-CoV-2 2019-nCoV/USA_WA1/2020 infected in human Caco-2 cells assessed as reduction in viral replication pre-treated with compound for 30 mins followed by viral infection and measured after 48 hrs; format: functional, organism-based; conditions: Severe acute respiratory syndrome coronavirus 2, 2019-nCoV/USA_WA1/2020, Caco-2
[8] = test system: SARS-CoV-2; assay: Antiviral activity against SARS-CoV-2 2019-nCoV/USA_WA1/2020 infected in human Huh7.5 cells assessed as reduction in viral replication pre-treated with compound for 30 mins followed by viral infection and measured after 48 hrs; format: functional, organism-based; conditions: Severe acute respiratory syndrome coronavirus 2, 2019-nCoV/USA_WA1/2020, Huh7.5
[9] = test system: SARS-CoV-2; assay: Antiviral activity against SARS CoV-2 USA-WA1/2020 clinical isolate infected in human Calu-3 cells assessed as reduction in viral infection; format: functional, organism-based; conditions: Severe acute respiratory syndrome coronavirus 2, USA-WA1/2020, Calu-3

Structure (SMILES)	IC50 [2] [nM]	CC50 [3] [µM]	half-life [1] [min]	other results
CCCCCCCCCCCCCCCCSCCCOP(=O)(O)CO[C@H](C)Cn1cnc2c(N)ncnc21	10	49.8		t1/2 ([1]; microsomes): 42 min
CCCCCCCCCCCCCCCCCCCCOP(=O)(O)CO[C@H](C)Cn1cnc2c(N)ncnc21	127	13.2	49	
CCCCCCCCCCCCCCCCCCOC[C@@H](COP(=O)(O)OC[C@H]1O[C@@](C#N)(c2ccc3c(N)ncnn23)[C@H](O)[C@@H]1O)OCc1ccccc1				EC50 [4]: 140 nM; EC50 [5]: 150 nM; EC50 [6]: 300 nM; EC50 [7]: 140 nM; EC50 [8]: 300 nM
C[C@H](Cn1cnc2c(N)ncnc21)OCP(=O)(O)OCCOCCCCCCCCCCCCCCCC(F)(F)F	8	> 100	> 120	
CCCCOCCCCCOCCCCCOCCCOP(=O)(O)CO[C@H](C)Cn1cnc2c(N)ncnc21	32000	> 100		
CCCCCCCCCCCCCCCCCCOC[C@@H](COP(=O)(O)OC[C@H]1O[C@@](C#N)(c2ccc3c(N)ncnn23)[C@H](O)[C@@H]1O)OCc1ccc(OC)c(F)c1				EC50 [9]: 70 nM
C[C@H](Cn1cnc2c(N)ncnc21)OCP(=O)(O)OCCOCCCCCCCCCCCCc1ccc(S(F)(F)(F)(F)F)cc1	20	> 100	> 120	
CCCCCCCCCCCCCCOCCCCCOP(=O)(O)CO[C@H](C)Cn1cnc2c(N)ncnc21	52	> 100	31	
C[C@H](Cn1cnc2c(N)ncnc21)OCP(=O)(O)OCCOCCCCCCCCCCCCCC#CC(F)(F)F	16	> 100	> 120	
CCCCCCCCCCCCCCCCCCOCCOP(=O)(O)CO[C@H](C)Cn1cnc2c(N)ncnc21	3	53.8	105	
CCCCCCCCCCCCCCCCCOCCOP(=O)(O)CO[C@H](C)Cn1cnc2c(N)ncnc21	3	69.6	35	
C[C@H](Cn1cnc2c(N)ncnc21)OCP(=O)(O)OCCOCCCCCCCCCCCCCCCCC(F)(F)F	10	85.1	> 120	
C[C@H](Cn1cnc2c(N)ncnc21)OCP(=O)(O)OCCOCCCCCCCCCCCCCCC#CC(F)(F)F	10	> 100	> 120	
CCCCCCCCCCCCCCCCCCOC[C@@H](COP(=O)(O)OC[C@H]1O[C@@](C#N)(c2ccc3c(N)ncnn23)[C@H](O)[C@@H]1O)OCc1ccc(C#N)cc1				EC50 [9]: 43 nM
C[C@H](Cn1cnc2c(N)ncnc21)OCP(=O)(O)OCCOCCCCCCCCCCC#Cc1ccc(S(F)(F)(F)(F)F)cc1	10	> 100	> 120	
CCCCCCCCCCCCCCCOCCCCOP(=O)(O)CO[C@H](C)Cn1cnc2c(N)ncnc21	30	> 100	48	
CCCCCCCCCCCCCCCCCCOC[C@@H](COP(=O)(O)OC[C@H]1O[C@@](C#N)(c2ccc3c(N)ncnn23)[C@H](O)[C@@H]1O)OCc1cccc(C#N)c1				EC50 [9]: 34 nM
CCCCCCCCOCCCCCOCCCCCOP(=O)(O)CO[C@H](C)Cn1cnc2c(N)ncnc21	4000	> 100	12	
C[C@H](Cn1cnc2c(N)ncnc21)OCP(=O)(O)O [TENOFOVIR ANHYDROUS]	1600	35.4	> 120	
